Measurements taken from ChEMBL document CHEMBL3779788, “Facile synthesis of 1,3-thiazolidin-4-ones as antitubercular agents” (Bioorg Med Chem Lett, 2016).
≈ marks a conversion by molar mass, not a printed value.

How the values were obtained:
[1] = Cytotoxicity against human HCT116 cells at 3 ug/mL by MTT assay; format: cell-based, HCT-116; settings: read-out: INH
Escherichia coli = experiment: Antibacterial activity against Escherichia coli after 18 hrs by broth dilution method; format: functional, organism-based
[2] = Cytotoxicity against human MCF7 cells at 3 ug/mL by MTT assay; format: cell-based; settings: read-out: INH
[3] = Cytotoxicity against human HCT116 cells at 30 ug/mL by MTT assay; format: cell-based, HCT-116; settings: read-out: INH
[4] = system: Mycobacterium tuberculosis; experiment: Antitubercular activity against dormant Mycobacterium tuberculosis H37Ra assessed as growth inhibition at 10 ug/mL by XTT reduction menadione assay; format: functional; settings: read-out: GI
[5] = system: Mycobacterium tuberculosis; experiment: Antitubercular activity against dormant Mycobacterium tuberculosis H37Ra assessed as growth inhibition at 30 ug/mL by XTT reduction menadione assay; format: functional; settings: read-out: GI
[6] = Cytotoxicity against human A549 cells at 3 ug/mL by MTT assay; format: cell-based; settings: read-out: INH
[7] = Cytotoxicity against human A549 cells at 30 ug/mL by MTT assay; format: cell-based; settings: read-out: INH
Pseudomonas = experiment: Antibacterial activity against Pseudomonas after 18 hrs by broth dilution method; format: functional, organism-based
Staphylococcus aureus = experiment: Antibacterial activity against Staphylococcus aureus after 18 hrs by broth dilution method; format: functional, organism-based
[8] = Cytotoxicity against human A549 cells at 10 ug/mL by MTT assay; format: cell-based; settings: read-out: INH
[9] = system: Mycobacterium bovis BCG str. ATCC 35743; experiment: Antitubercular activity against dormant Mycobacterium bovis BCG ATCC 35743 assessed as growth inhibition at 30 ug/mL by NR assay; format: functional
[10] = system: Mycobacterium tuberculosis; experiment: Antitubercular activity against dormant Mycobacterium tuberculosis H37Ra assessed as growth inhibition at 3 ug/mL by XTT reduction menadione assay; format: functional; settings: read-out: GI
[11] = system: Mycobacterium bovis BCG str. ATCC 35743; experiment: Antitubercular activity against dormant Mycobacterium bovis BCG ATCC 35743 assessed as growth inhibition at 3 ug/mL by NR assay; format: functional
[12] = (§1) Cytotoxicity against human A549 cells after 48 and 72 hrs by MTT assay; format: cell-based; settings: A549 cells
A549 = experiment: as §1; format: cell-based; settings: a549, 72 h
[13] = system: Mycobacterium bovis BCG str. ATCC 35743; experiment: Antitubercular activity against dormant Mycobacterium bovis BCG ATCC 35743 assessed as growth inhibition at 10 ug/mL by NR assay; format: functional
[14] = Cytotoxicity against human HCT116 cells at 10 ug/mL by MTT assay; format: cell-based, HCT-116; settings: read-out: INH
[15] = (§2) Cytotoxicity against human MCF7 cells after 48 and 72 hrs by MTT assay; format: cell-based; settings: MCF7 cells
MCF7 = experiment: as §2; format: cell-based; settings: mcf7, 72 h
Bacillus subtilis = experiment: Antibacterial activity against Bacillus subtilis after 18 hrs by broth dilution method; format: functional, organism-based
[16] = system: Mycobacterium tuberculosis; experiment: Antitubercular activity against dormant Mycobacterium tuberculosis H37Ra by XTT reduction menadione assay; format: functional, organism-based
[17] = Cytotoxicity against human HCT116 cells after 48 and 72 hrs by MTT assay; format: cell-based, HCT-116; settings: for GI50 at 72 h: HCT116 cells; for GI90: hct-116, 72 h
[18] = (§3) Antitubercular activity against dormant Mycobacterium bovis BCG ATCC 35743 by NR assay; format: functional, Mycobacterium bovis BCG str. ATCC 35743
[19] = system: Mycobacterium bovis BCG str. ATCC 35743; experiment: as §3; format: functional
[20] = Cytotoxicity against human MCF7 cells at 30 ug/mL by MTT assay; format: cell-based; settings: read-out: INH
[21] = Cytotoxicity against human MCF7 cells at 10 ug/mL by MTT assay; format: cell-based; settings: read-out: INH

Compound	cytotoxicity at 3 ug/mL [1] [%]	IC50 (Escherichia coli) [µg/mL]	MIC (Escherichia coli) [µg/mL]	cytotoxicity at 3 ug/mL [2] [%]	cytotoxicity at 30 ug/mL [3] [%]	inhibition of growth at 10 µg/mL [4] [%]	inhibition of growth at 30 µg/mL [5] [%]	cytotoxicity at 3 ug/mL [6] [%]	cytotoxicity at 30 ug/mL [7] [%]	IC50 (Pseudomonas) [µg/mL]	MIC (Pseudomonas) [µg/mL]	IC50 (Staphylococcus aureus) [µg/mL]	MIC (Staphylococcus aureus) [µg/mL]	cytotoxicity at 10 ug/mL [8] [%]	growth inhibition (GI) [9] [%]	inhibition of growth at 3 µg/mL [10] [%]	growth inhibition (GI) [11] [%]	GI50 at 72 h [12] [µg/mL]	GI90 (A549) [µg/mL]	growth inhibition (GI) [13] [%]	also measured
O=C1CSC(c2ccc(F)cc2)N1c1ccccc1 (stereo unspecified)	-0.5	> 30	> 30	-4.1	23.5	73.2	92.2	0	0	> 30	> 30	> 30	> 30	0	80.2	25.6	-10.7	> 100	> 100	14.4	cytotoxicity at 10 ug/mL [14]: 14.6%; GI50 at 72 h [15]: > 100 µg/mL; GI90 (MCF7): > 100 µg/mL; IC50 (Bacillus subtilis): > 30 µg/mL; MIC (Bacillus subtilis): > 30 µg/mL; IC50 [16]: 6.8 µg/mL (≈ 24.9 µM); IC90 [16]: 27.5 µg/mL (≈ 101 µM); GI50 at 72 h [17]: > 100 µg/mL; GI90 [17]: > 100 µg/mL; IC50 [18]: 20.9 µg/mL (≈ 76.5 µM); IC90 [19]: > 30 µg/mL; cytotoxicity at 30 ug/mL [20]: 33%; cytotoxicity at 10 ug/mL [21]: 10.8%
O=C1CSC(c2ccc(Br)cc2)N1c1ccccc1 (stereo unspecified)	2.4	> 30	> 30	22.1	10.1	66.4	97.7	0	0	> 30	> 30	> 30	> 30	0	48.8	-33.2	48.7	> 100	> 100	44.4	cytotoxicity at 10 ug/mL [14]: 4.9%; GI50 at 72 h [15]: > 100 µg/mL; GI90 (MCF7): > 100 µg/mL; IC50 (Bacillus subtilis): > 30 µg/mL; MIC (Bacillus subtilis): > 30 µg/mL; IC50 [16]: 8.9 µg/mL (≈ 26.6 µM); IC90 [16]: 25.2 µg/mL (≈ 75.4 µM); GI50 at 72 h [17]: > 100 µg/mL; GI90 [17]: > 100 µg/mL; IC50 [18]: > 30 µg/mL; IC90 [19]: > 30 µg/mL; cytotoxicity at 30 ug/mL [20]: 32.8%; cytotoxicity at 10 ug/mL [21]: 23.8%
